Data reported in US20240398844A1, “PHENYLCOUMARINS FOR TREATING INFLAMMATION” (Ohio State Innovation Foundation, priority 2021, published 2024).

Key:
PPAR-γ = target: T1, PPAR-γ (Homo sapiens, UniProt P37231); test: PPAR-γ ELISA Assay in HeLa cells (in vitro PPAR-γ assay); type: cell-based; settings: 50 μg/mL; for activation at 50 µg/mL: Table 2; for % Activation PPAR-γ: Table 4
T1 construct: endogenous in cells; host or cells: HeLa
T1 sequence (P37231 1-505): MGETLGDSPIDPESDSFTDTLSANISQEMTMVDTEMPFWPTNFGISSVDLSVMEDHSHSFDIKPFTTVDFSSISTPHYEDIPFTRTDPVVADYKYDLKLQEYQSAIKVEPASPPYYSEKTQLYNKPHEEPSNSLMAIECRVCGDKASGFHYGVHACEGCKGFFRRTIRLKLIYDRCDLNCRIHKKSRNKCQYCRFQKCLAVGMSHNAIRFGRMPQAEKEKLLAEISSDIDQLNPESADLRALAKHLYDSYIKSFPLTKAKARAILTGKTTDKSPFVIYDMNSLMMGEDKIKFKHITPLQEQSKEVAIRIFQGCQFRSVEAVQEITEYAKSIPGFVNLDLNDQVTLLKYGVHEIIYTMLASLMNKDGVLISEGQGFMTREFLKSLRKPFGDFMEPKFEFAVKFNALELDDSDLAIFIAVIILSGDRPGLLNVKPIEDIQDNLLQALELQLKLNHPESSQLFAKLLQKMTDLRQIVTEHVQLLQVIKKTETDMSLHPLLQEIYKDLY
Procedure: In addition to the Western blot, the diverse library was also screened in the in vitro PPAR-γ assay. […] The compounds were tested at 50 μg/mL according to the protocol detailed in section 3.2.3.

HbA1C = test: Diabetic zebrafish Western blot, HbA1C expression; type: in vivo; settings: diabetic zebrafish, 10 μM, library screen, FIG. 2 / FIG. 11
Procedure: (§1) Alloxan-induced diabetic zebrafish were treated with compounds for immunoblot to validate the newly developed animal model, determine the antidiabetic potential of natural product leads, evaluate glucose metabolism, and discover possible mechanisms of action.
(§2) At 72 hpf, naturally dechorionated zebrafish were sorted into a 24-well microplate with 10 fish per well. Type 2 diabetes was induced with the diabetogenic agent alloxan at a dose of 0.5 mg/mL in system water for 3 hours. […] After 3 hours of treatment with natural product samples, 10 mg/mL D-glucose was administered in system water for 30 minutes, followed by 1 hour in fresh system water to metabolize the glucose and natural product leads. Upon completion of the 4-phase treatment cycle, zebrafish treatment groups were snap frozen into individual microcentrifuge tubes on dry ice, stored overnight at −80° C., thawed, homogenized with 2 μL PBS per animal, and centrifuged at 4° C. for 1 hour at 17,000 rpm. Protein content of homogenate supernatant was determined using the Pierce BCA Protein Assay kit (Pierce Biotechnology) and bovine serum albumin (BSA) standard curve. Absorbance of protein solutions from zebrafish homogenates and serial dilutions of the BSA standard were measured at 544 nm, using a FLUOstar Optima plate reader (BMG Labtechnologies GmbH, Inc.). Homogenates were analyzed by Western blot. Equal amounts of protein (20 μg) were combined with 4× lithium dodecyl sulphate (LDS) loading buffer (NuPAGE, Life Technologies, Carlsbad, CA, USA), brought to volume (15 μL) with PBS, and heated to 95° C. for 5 minutes. Proteins were resolved using NuPAGE Bis-Tris 4-12% gradient sodium dodecyl sulfate polyacrylamide gel electrophoresis (SDS-PAGE) gels together with SeeBlue Plus2 Pre-Stained Standard Ladder (Life Technologies).
(§3) Electrophoresis was performed using NuPAGE MES SDS Running Buffer and XCell SureLock Mini-Cell Electrophoresis System (Life Technologies). Separated proteins were transferred from the gel to a polyvinylidene fluoride (PVDF) membrane using tris buffered saline with Tween-20 (TBST) buffer. The blots were blocked in 3% BSA in TBST and subsequently probed using primary antibodies (1:1000 in 1% BSA in TBST) against each target overnight (Table 1). The secondary, horseradish peroxidase (HRP) conjugated antibodies (1:2000) were obtained from Santa Cruz Biotechnology Inc., (Santa Cruz, CA, USA). Conjugated antibodies were detected using SuperSignal West Femto chemiluminescent substrate from Pierce Biotechnology. Western blots were visualized, and images captured using a luminometer and LumiAnalyst 3.0 software (Boehringer-Mannheim, Mannheim, Germany). Band density was quantified for proteins of interest using ImageJ Gel Analysis.
(§4) In the case of duplicate blots, the band density results were expressed in bar graphs as the mean±standard error of the mean (SEM) of two independent experiments. Due to the labor- and time-intensive aspect of Western blot analysis with multiple target proteins, a maximum of two independent immunoblot experiments were performed per compared sample set. […] Additionally, treatment groups were also evaluated versus the diabetic, untreated control group for significance by Student's f-test and indicated in the bar graphs with p values represented by *p<0.05, **p<0.01, and ***p<0.001. […]

PEPCK = test: Diabetic zebrafish Western blot, PEPCK expression; type: in vivo; settings: 10 μM, library screen, FIG. 4 / FIG. 11
Procedure: as §1
(§5) At 72 hpf, naturally dechorionated zebrafish were sorted into a 24-well microplate with 10 fish per well. Type 2 diabetes was induced with the diabetogenic agent alloxan at a dose of 0.5 mg/mL in system water for 3 hours. The incubation solution was changed to 0.01% DMSO in system water with compounds at concentrations of 20 μg/mL or […], respectively. After 3 hours of treatment with natural product samples, 10 mg/mL D-glucose was administered in system water for 30 minutes, followed by 1 hour in fresh system water to metabolize the glucose and natural product leads. Upon completion of the 4-phase treatment cycle, zebrafish treatment groups were snap frozen into individual microcentrifuge tubes on dry ice, stored overnight at −80° C., thawed, homogenized with 2 μL PBS per animal, and centrifuged at 4° C. for 1 hour at 17,000 rpm. Protein content of homogenate supernatant was determined using the Pierce BCA Protein Assay kit (Pierce Biotechnology) and bovine serum albumin (BSA) standard curve. Absorbance of protein solutions from zebrafish homogenates and serial dilutions of the BSA standard were measured at 544 nm, using a FLUOstar Optima plate reader (BMG Labtechnologies GmbH, Inc.). Homogenates were analyzed by Western blot. Equal amounts of protein (20 μg) were combined with 4× lithium dodecyl sulphate (LDS) loading buffer (NuPAGE, Life Technologies, Carlsbad, CA, USA), brought to volume (15 μL) with PBS, and heated to 95° C. for 5 minutes. Proteins were resolved using NuPAGE Bis-Tris 4-12% gradient sodium dodecyl sulfate polyacrylamide gel electrophoresis (SDS-PAGE) gels together with SeeBlue Plus2 Pre-Stained Standard Ladder (Life Technologies).
as §3, with “Western blots were visualized, and images captured using a luminometer and LumiAnalyst 3.0 software (Boehringer-Mannheim, Mannheim, Germany).” left out, “Analysis. […]” for “Analysis.”

NFκB p65 = test: Diabetic zebrafish Western blot, NFκB expression; type: in vivo; settings: diabetic zebrafish, 10 μM, FIG. 5
Procedure: as §1, §2, §3, §4

GLUT-4 = test: Diabetic zebrafish Western blot, GLUT-4 expression; type: in vivo; settings: 10 μM, FIG. 5
Procedure: as §1
as §5, with “Proteins were resolved using NuPAGE Bis-Tris 4-12% gradient sodium dodecyl sulfate polyacrylamide gel electrophoresis (SDS-PAGE) gels together with SeeBlue Plus2 Pre-Stained Standard Ladder (Life Technologies).” left out
Electrophoresis was performed using NuPAGE MES SDS Running Buffer and XCell SureLock Mini-Cell Electrophoresis System (Life Technologies). […] Conjugated antibodies were detected using SuperSignal West Femto chemiluminescent substrate from Pierce Biotechnology. […] Band density was quantified for proteins of interest using ImageJ Gel Analysis. […]

C[C@]12C[C@@H](O)CC3(CCC4[C@@](C)(CCC[C@@]4(C)C(=O)O[C@@H]4OC(CO)[C@@H](O[C@@H]5OC[C@H](O)[C@H](O)C5O)[C@H](O)C4O)C3C(=O)O1)C2 (stereo partly drawn) [Compound 28]
activation at 50 µg/mL (PPAR-γ): 0%

C/C=C/C1=CC=C/C(=C2/C(=O)CCNC2=O)O1 [Compound 30]
activation at 50 µg/mL (PPAR-γ): 37%

C=C1CC[C@H]2C(=C)CC[C@H]3C(=C)C(=O)O[C@@H]3[C@@H]12 [Compound 29]
activation at 50 µg/mL (PPAR-γ): 0%

O=c1cc(-c2ccc(O)cc2)oc2c([C@H]3OC(CO)[C@@H](O)[C@H](O)C3O)c(O)cc(O)c12 (stereo partly drawn) [Compound 21]
activation at 50 µg/mL (PPAR-γ): 57%
HbA1C expression (Western blot band density) (HbA1C): lowest glycated hemoglobin levels

CC(C)(O)CCC(=O)[C@](C)(O)[C@H]1[C@H](O)C[C@@]2(C)C3CC=C4[C@@H](CC(O)[C@H](O[C@@H]5OC(CO)[C@@H](O)[C@H](O)C5O)C4(C)C)C3C(=O)C[C@@]12C (stereo partly drawn) [Compound 27]
activation at 50 µg/mL (PPAR-γ): 65%

COc1cc(O)c2c(c1)OC(c1ccc(O)cc1)CC2=O (stereo not drawn) [Compound 19]
activation at 50 µg/mL (PPAR-γ): 77%
HbA1C expression (Western blot band density) (HbA1C): lowest glycated hemoglobin levels

COc1cc(O[C@@H]2OC(CO)[C@H](O)[C@H](O)C2O)c2c(-c3ccc(O)c(O)c3)cc(=O)oc2c1 (stereo partly drawn) [Compound 22]
activation at 50 µg/mL (PPAR-γ): 21%
% Activation PPAR-γ (PPAR-γ): 21%
PEPCK expression (Western blot band density) (PEPCK): 31>rosiglitazone>22>23 and greatest PEPCK expression
NFκB expression (Western blot) (NFκB p65): excellent inhibition of NFκB expression
GLUT-4 expression (Western blot) (GLUT-4): strong GLUT-4 expression

Oc1cccc(CCc2ccc3c(c2)OCO3)c1 [Compound 16]
activation at 50 µg/mL (PPAR-γ): 0%

COc1cc(O[C@@H]2OC(CO)[C@@H](O)[C@H](O)C2O)c2c(-c3ccc(O)c(O)c3)cc(=O)oc2c1 (stereo partly drawn) [Compound 23]
activation at 50 µg/mL (PPAR-γ): 145%
% Activation PPAR-γ (PPAR-γ): 145%
PPAR-γ activity in the in vitro assay (in words) (PPAR-γ; versus positive control rosiglitazone): top performers
PEPCK expression (Western blot band density) (PEPCK): 31>rosiglitazone>22>23
NFκB expression (Western blot) (NFκB p65): excellent inhibition of NFκB expression
GLUT-4 expression (Western blot) (GLUT-4): strong GLUT-4 expression

COc1ccc(-c2cc(=O)c3c(O)cc(O)cc3o2)cc1 [Compound 17]
activation at 50 µg/mL (PPAR-γ): 0%
